Source: patent US6737383B1, “Herbicidal oxadiazolidines” (priority 1999, dated 2004)

Assays:
johnsongrass = assay: Test C postemergence johnsongrass; format: in vivo, Sorghum halepense; conditions: 0 to 100 scale, 0 no effect, 100 complete control
Protocol: (§1) Compounds evaluated in this test were formulated in a non-phytotoxic solvent mixture which included a surfactant and applied to plants that were grown for various periods of time before treatment (postemergence application). A mixture of sandy loam soil and greenhouse potting mix in a 60:40 ratio was used for the postemergence test.
(§2) Plantings of these crops and weed species were adjusted to produce plants of appropriate size for the postemergence test. All plant species were grown using normal greenhouse practices. Crop and weed species include arrowleaf sida (Sida rhombifolia), barnyardgrass (Echinochloa crus-galli), cocklebur (Xanthium strumarium), common ragweed (Ambrosia elatior), corn (Zea mays), cotton (Gossypium hirsutum), eastern black nightshade (Solanum ptycanthum), fall panicum (Panicum dichotomiflorum), field bindweed (Convolvulus arvensis), giant foxtail (Setaria faberii), hairy beggarticks (Bidens pilosa), ivyleaf morningglory (Ipomoea hederacea), johnsongrass (Sorghum halepense), ladysthumb smartweed (Polygonum persicaria), lambsquarters (Chenopodium album), large crabgrass (Digitaria sanguinalis), purple nutsedge (Cyperus rotundus), redroot pigweed (Amaranthus retroflexus), soybean (Glycine max), surinam grass (Brachiaria decumbens), velvetleaf (Abutilon theophrasti) and wild poinsettia (Euphorbia heterophylla).
(§3) Treated plants and untreated controls were maintained in a greenhouse for approximately 14, to 21 days, after which all treated plants were compared to untreated controls and visually evaluated. Plant response ratings, summarized in Table C, were based upon a 0 to 100 scale where 0 was no effect and 100 was complete control. A dash response (−) means no test result.

cotton = assay: Test C postemergence cotton; format: in vivo, Gossypium hirsutum; conditions: 0 to 100 scale, 0 no effect, 100 complete control
In short: (§4)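 In this greenhouse assay, treated and untreated plants were kept for approximately 14 to 21 days following postemergence application, then rated by eye on a scale from 0 (no effect) to 100 (complete control).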

corn = assay: Test C postemergence corn; format: in vivo, Zea mays; conditions: 0 to 100 scale, 0 no effect, 100 complete control
In short: as §4

cocklebur = assay: Test C postemergence cocklebur; format: in vivo, Xanthium strumarium; conditions: 0 to 100 scale, 0 no effect, 100 complete control
In short: as §4

large crabgrass = assay: Test C postemergence large crabgrass; format: in vivo, Digitaria sanguinalis; conditions: 0 to 100 scale, 0 no effect, 100 complete control
Protocol: as §1, §2, §3

giant foxtail = assay: Test C postemergence giant foxtail; format: in vivo, Setaria faberii; conditions: 0 to 100 scale, 0 no effect, 100 complete control
In short: as §4

sugar beet = assay: Test E sugar beet; format: in vivo, Beta vulgaris; conditions: Postemergence
Protocol: (§5) Compounds evaluated in this test were formulated in a non-phytotoxic solvent mixture which included a surfactant and applied to plants that were in the 1- to 4-leaf stage (postemergence application). A mixture of sandy loam soil and greenhouse potting mix in a 60:40 ratio was used for the postemergence test.
(§6) Plantings of these crops and weed species were adjusted to produce plants of appropriate size for the postemergence test. All plant species were grown using normal greenhouse practices. Crop and weed species include annual bluegrass (Poa annua), blackgrass (Alopecurus myosuroides), black nightshade (Solanum nigra), chickweed (Stellaria media), common poppy (Papaver rhoeas), deadnettle (Lamium amplexicaule), downy brome (Bromus tectorum), field violet (Viola arvensis), galium (Galium aparine), green foxtail (Setaria viridis), Italian ryegrass (Lolium multiflorum), jointed goatgrass (Aegilops cylindrica), kochia (Kochia scoparia), lambsquarters (Chenopodium album), littleseed canarygrass (Phalaris minor), rape (Brassica napus), redroot pigweed (Amaranthus retroflexus), Russian thistle (Salsola kali), scentless chamomile (Matricaria inodora), spring barley (Hordeum vulgare), sugar beet (Beta vulgaris), sunflower (Helianthus annuus), ivyleaf speedwell (Veronica hederaefolia), spring wheat (Triticum aestivum), winter wheat (Triticum aestivum), wild buckwheat (Polygonum convolvulus), wild mustard (Sinapis arvensis), wild oat (Avena fatua), windgrass (Apera spica-venti) and winter barley (Hordeum vulgare).
(§7) Treated plants and untreated controls were maintained in a greenhouse for approximately 21 to 28 days, after which all treated plants were compared to untreated controls and visually evaluated. […] A dash response (-) means no test result.

field violet = assay: Test E field violet; format: in vivo, Viola arvensis; conditions: Postemergence
Protocol: as §5, §6, §7

Italian ryegrass = assay: Test E Italian ryegrass; format: in vivo, Lolium multiflorum; conditions: Postemergence
In short: (§8)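 Plants were grown under normal greenhouse practice; for postemergence, in sandy loam soil mixed 60:40 with potting mix, treated at the 1- to 4-leaf stage. The compound was in a non-phytotoxic solvent carrying a surfactant. After roughly 21 to 28 days plants were scored visually against untreated plants.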

black nightshade = assay: Test E black nightshade; format: in vivo, Solanum nigra; conditions: Preemergence
wild oat = assay: Test E wild oat; format: in vivo, Avena fatua; conditions: Postemergence
In short: as §8

winter barley = assay: Test E winter barley; format: in vivo, Hordeum vulgare; conditions: Postemergence
Protocol: as §5, §6, §7

galium = assay: Test E galium; format: in vivo, Galium aparine; conditions: Preemergence
[1] = Rate 250 g/ha, 0 to 100 scale (0 no effect, 100 complete control)
[2] = Rate 500 g/ha, 0 to 100 scale, 0 no effect, 100 complete control
[3] = Rate 125 g/ha, 0 to 100 scale (0 no effect, 100 complete control)
[4] = Rate 500 g/ha, 0 to 100 scale where 0 is no effect and 100 is complete control
[5] = Rate 250 g/ha, 0 to 100 scale where 0 is no effect and 100 is complete control

## CCn1c(=O)on(C(=O)N(c2ccccc2)C(C)C)c1=O [Compound 117]
johnsongrass; Rate 140 g/ha
  Plant response rating Johnsongrass: 10
johnsongrass; Rate 280 g/ha
  Plant response rating Johnsongrass: 35
johnsongrass; Rate 560 g/ha
  Plant response rating Johnsongrass: 40
johnsongrass; Rate 1120 g/ha
  Plant response rating Johnsongrass: 85
cotton; Rate 140 g/ha
  Plant response rating Cotton: 5
cotton; Rate 280 g/ha
  Plant response rating Cotton: 10
cotton; Rate 560 g/ha
  Plant response rating Cotton: 30
cotton; Rate 1120 g/ha
  Plant response rating Cotton: 60
corn; Rate 140 g/ha
  Plant response rating, Corn: 0
corn; Rate 280 g/ha
  Plant response rating, Corn: 0
corn; Rate 560 g/ha
  Plant response rating, Corn: 40
corn; Rate 1120 g/ha
  Plant response rating, Corn: 85
cocklebur; Rate 140 g/ha
  Plant response rating, Cocklebur: 0
cocklebur; Rate 280 g/ha
  Plant response rating, Cocklebur: 0
cocklebur; Rate 560 g/ha
  Plant response rating, Cocklebur: 0
cocklebur; Rate 1120 g/ha
  Plant response rating, Cocklebur: 0
Large crabgrass; Rate 140 g/ha
  Plant response rating Large crabgrass: 0
Large crabgrass; Rate 280 g/ha
  Plant response rating Large crabgrass: 20
Large crabgrass; Rate 560 g/ha
  Plant response rating Large crabgrass: 60
Large crabgrass; Rate 1120 g/ha
  Plant response rating Large crabgrass: 80
Giant foxtail; Rate 140 g/ha
  Plant response rating, Giant foxtail: 0
Giant foxtail; Rate 280 g/ha
  Plant response rating, Giant foxtail: 60
Giant foxtail; Rate 560 g/ha
  Plant response rating, Giant foxtail: 75
Giant foxtail; Rate 1120 g/ha
  Plant response rating, Giant foxtail: 80

## CC(C)N(C(=O)n1oc(=O)n(C(C)C)c1=O)c1ccc(Cl)cc1 [Compound 114]
Sugar beet; Rate 125 g/ha, 0 to 100 scale
  Plant response rating, Sugar beet: 50
Sugar beet; [1]
  Plant response rating, Sugar beet: 55
Sugar beet; [2]
  Plant response rating, Sugar beet: 50
Field violet; Rate 125 g/ha, 0 to 100 scale
  Plant response rating, Field violet: 0
Field violet; [1]
  Plant response rating, Field violet: 0
Field violet; [2]
  Plant response rating, Field violet: 15
Italian ryegrass; Rate 125 g/ha, 0 to 100 scale
  Plant response rating, I. Ryegrass: 10
Italian ryegrass; [1]
  Plant response rating, I. Ryegrass: 20
Italian ryegrass; [2]
  Plant response rating, I. Ryegrass: 20
Black nightshade; [3]
  Plant response rating, Blk nightshade: 20
Black nightshade; Rate 250 g/ha, 0 to 100 scale
  Plant response rating, Blk nightshade: 60
Black nightshade; [4]
  Plant response rating, Blk nightshade: 90
Wild oat; Rate 125 g/ha, 0 to 100 scale
  Plant response rating, Wild oat: 0
Wild oat; [1]
  Plant response rating, Wild oat: 0
Wild oat; [2]
  Plant response rating, Wild oat: 0
Winter barley; Rate 125 g/ha, 0 to 100 scale
  Plant response rating, Barley (winter): 5
Winter barley; [1]
  Plant response rating, Barley (winter): 10
Winter barley; [2]
  Plant response rating, Barley (winter): 20
galium; [3]
  Plant response rating, Galium: 100
galium; Rate 250 g/ha, 0 to 100 scale
  Plant response rating, Galium: 60
galium; [4]
  Plant response rating, Galium: 70

## CC(C)N(C(=O)n1oc(=O)n(C(C)C)c1=O)c1ccc(F)cc1 [Compound 131]
johnsongrass; Rate 140 g/ha
  Plant response rating Johnsongrass: 15
johnsongrass; Rate 280 g/ha
  Plant response rating Johnsongrass: 40
johnsongrass; Rate 560 g/ha
  Plant response rating Johnsongrass: 60
johnsongrass; Rate 1120 g/ha
  Plant response rating Johnsongrass: 70
Sugar beet; Rate 62 g/ha, 0 to 100 scale
  Plant response rating, Sugar beet: 0
Sugar beet; Rate 125 g/ha, 0 to 100 scale
  Plant response rating, Sugar beet: 0
Sugar beet; [2]
  Plant response rating, Sugar beet: 0
Sugar beet; [5]
  Sugar beet plant response rating: 0
cotton; Rate 140 g/ha
  Plant response rating Cotton: 10
cotton; Rate 280 g/ha
  Plant response rating Cotton: 10
cotton; Rate 560 g/ha
  Plant response rating Cotton: 40
cotton; Rate 1120 g/ha
  Plant response rating Cotton: 65
Field violet; Rate 62 g/ha, 0 to 100 scale
  Plant response rating, Field violet: 60
Field violet; Rate 125 g/ha, 0 to 100 scale
  Plant response rating, Field violet: 0
Field violet; [2]
  Plant response rating, Field violet: 0
Field violet; [5]
  Field violet plant response rating: 0
Italian ryegrass; Rate 62 g/ha, 0 to 100 scale
  Plant response rating, I. Ryegrass: 50
Italian ryegrass; Rate 125 g/ha, 0 to 100 scale
  Plant response rating, I. Ryegrass: 0
Italian ryegrass; [2]
  Plant response rating, I. Ryegrass: 40
Italian ryegrass; [5]
  I. Ryegrass plant response rating: 30
corn; Rate 140 g/ha
  Plant response rating, Corn: 0
corn; Rate 280 g/ha
  Plant response rating, Corn: 0
corn; Rate 560 g/ha
  Plant response rating, Corn: 5
corn; Rate 1120 g/ha
  Plant response rating, Corn: 40
Black nightshade; [3]
  Plant response rating, Blk nightshade: 70
Black nightshade; Rate 250 g/ha
  Blk nightshade plant response rating (0 to 100 scale): 85
Black nightshade; [4]
  Plant response rating, Blk nightshade: 90
cocklebur; Rate 140 g/ha
  Plant response rating, Cocklebur: 0
cocklebur; Rate 280 g/ha
  Plant response rating, Cocklebur: 0
cocklebur; Rate 560 g/ha
  Plant response rating, Cocklebur: 0
cocklebur; Rate 1120 g/ha
  Plant response rating, Cocklebur: 10
Wild oat; Rate 62 g/ha, 0 to 100 scale
  Plant response rating, Wild oat: 40
Wild oat; Rate 125 g/ha, 0 to 100 scale
  Plant response rating, Wild oat: 0
Wild oat; [2]
  Plant response rating, Wild oat: 70
Wild oat; [5]
  Wild oat plant response rating: 20
Large crabgrass; Rate 140 g/ha
  Plant response rating Large crabgrass: 0
Large crabgrass; Rate 280 g/ha
  Plant response rating Large crabgrass: 20
Large crabgrass; Rate 560 g/ha
  Plant response rating Large crabgrass: 70
Large crabgrass; Rate 1120 g/ha
  Plant response rating Large crabgrass: 85
Winter barley; Rate 62 g/ha, 0 to 100 scale
  Plant response rating, Barley (winter): 5
Winter barley; Rate 125 g/ha, 0 to 100 scale
  Plant response rating, Barley (winter): 0
Winter barley; [2]
  Plant response rating, Barley (winter): 20
Winter barley; [5]
  Barley (winter) plant response rating: 0
galium; [3]
  Plant response rating, Galium: 60
galium; Rate 250 g/ha
  Galium plant response rating (0 to 100 scale): 50
galium; [4]
  Plant response rating, Galium: 100
Giant foxtail; Rate 140 g/ha
  Plant response rating, Giant foxtail: 10
Giant foxtail; Rate 280 g/ha
  Plant response rating, Giant foxtail: 40
Giant foxtail; Rate 560 g/ha
  Plant response rating, Giant foxtail: 60
Giant foxtail; Rate 1120 g/ha
  Plant response rating, Giant foxtail: 80
